Experimental data from the supplement of paper PMC10307832.

Columns and labels:
Test in all cases: relative viability (nuclei count vs DMSO), 5 days (fraction); higher = more cells survive
[1] = system: NCI-H1666
Summary of the method: (§1)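 Lung cancer cell lines, seeded in 1536-well plates, were treated the following day by pin tool with a single drug or with five library-drug doses (not always all listed) in √10 steps on top of a fixed anchor-drug dose. Cells were fixed and nuclei stained in one step after 5 days, and nuclei were counted. Relative viability is the nuclei count for treated wells divided by that for vehicle wells, reported as medians of duplicate plates.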

[2] = system: NCI-H2087
Summary of the method: as §1

[3] = system: NCI-H23
Summary of the method: as §1

[4] = system: BEN
Summary of the method: as §1

[5] = system: NCI-H2009
Summary of the method: as §1

[6] = system: HARA
Summary of the method: as §1

[7] = system: NCI-H2023
Summary of the method: as §1

[8] = system: NCI-H441
Summary of the method: as §1

[9] = system: NCI-H3122
Summary of the method: as §1

[10] = system: NCI-H2347
Summary of the method: as §1

[11] = system: NCI-H647
Summary of the method: as §1

[12] = system: NCI-H2126
Summary of the method: as §1

[13] = system: NCI-H727
Summary of the method: as §1

[14] = system: NCI-H650
Summary of the method: as §1

[15] = system: NCI-H838
Summary of the method: as §1

[16] = system: NCI-H1993
Summary of the method: as §1

[17] = system: 201T
Summary of the method: as §1

[18] = system: NCI-H596
Summary of the method: as §1

[19] = system: EMC-BAC-2
Summary of the method: as §1

[20] = system: LOU-NH91
Summary of the method: as §1

[21] = system: NCI-H1395
Summary of the method: as §1

[22] = system: LCLC-103H
Summary of the method: as §1

[23] = system: HCC-44
Summary of the method: as §1

For `C[C@@H]1CN(CC(=O)Nc2ccc3c(c2)Cc2cccc(-c4cc(=O)cc(N5CCOCC5)o4)c2S3)C[C@H](C)O1` + CS(=O)(=O)N1CCN(Cc2cc3nc(-c4cccc5[nH]ncc45)nc(N4CCOCC4)c3s2)CC1 [Pictilisib] (partner 1 µM), the relative viability ([1]; first compound 0.04 µM) was 0.444, the relative viability ([1]; first compound 0.1265 µM) was 0.298 and the relative viability ([1]; first compound 0.4 µM) was 0.439. For the same compound, the relative viability ([1]; first compound 4 µM) was 0.29, the relative viability ([2]; first compound 0.04 µM) was 1.05 and the relative viability ([2]; first compound 0.1265 µM) was 0.806. The relative viability ([2]; first compound 0.4 µM) was 1.02, the relative viability ([2]; first compound 4 µM) was 0.541 and the relative viability ([3]; first compound 0.04 µM) was 0.448. The relative viability ([3]; first compound 0.1265 µM) was 0.499, the relative viability ([3]; first compound 0.4 µM) was 0.483 and the relative viability ([3]; first compound 4 µM) was 0.543. The relative viability ([4]; first compound 0.04 µM) was 0.556, the relative viability ([4]; first compound 0.1265 µM) was 0.537 and the relative viability ([4]; first compound 0.4 µM) was 0.601. For the same compound, the relative viability ([4]; first compound 4 µM) was 0.513, the relative viability ([5]; first compound 0.04 µM) was 0.909 and the relative viability ([5]; first compound 0.1265 µM) was 0.84. It also gave a relative viability ([5]; first compound 0.4 µM) of 0.816, a relative viability ([5]; first compound 4 µM) of 0.588 and a relative viability ([6]; first compound 0.04 µM) of 0.383. For the same compound, the relative viability ([6]; first compound 0.1265 µM) was 0.37, the relative viability ([6]; first compound 0.4 µM) was 0.226 and the relative viability ([6]; first compound 4 µM) was 0.372. It also gave a relative viability ([7]; first compound 0.04 µM) of 0.115, a relative viability ([7]; first compound 0.1265 µM) of 0.262 and a relative viability ([7]; first compound 0.4 µM) of 0.197. The relative viability ([7]; first compound 4 µM) was 0.198, the relative viability ([8]; first compound 0.04 µM) was 0.526 and the relative viability ([8]; first compound 0.1265 µM) was 0.447. The relative viability ([8]; first compound 0.4 µM) was 0.43, the relative viability ([8]; first compound 4 µM) was 0.372 and the relative viability ([9]; first compound 0.04 µM) was 0.656. It also gave a relative viability ([9]; first compound 0.1265 µM) of 0.532, a relative viability ([9]; first compound 0.4 µM) of 0.513 and a relative viability ([9]; first compound 4 µM) of 0.472. The relative viability ([10]; first compound 0.04 µM) was 0.961, the relative viability ([10]; first compound 0.1265 µM) was 0.577 and the relative viability ([10]; first compound 0.4 µM) was 0.747. It also gave a relative viability ([10]; first compound 4 µM) of 0.313, a relative viability ([11]; first compound 0.04 µM) of 0.258 and a relative viability ([11]; first compound 0.1265 µM) of 0.397. For the same compound, the relative viability ([11]; first compound 0.4 µM) was 0.204, the relative viability ([11]; first compound 4 µM) was 0.393 and the relative viability ([12]; first compound 0.04 µM) was 0.536. For the same compound, the relative viability ([12]; first compound 0.1265 µM) was 0.49, the relative viability ([12]; first compound 0.4 µM) was 0.459 and the relative viability ([12]; first compound 4 µM) was 0.487. For the same compound, the relative viability ([13]; first compound 0.04 µM) was 0.291, the relative viability ([13]; first compound 0.1265 µM) was 0.421 and the relative viability ([13]; first compound 0.4 µM) was 0.252. The relative viability ([13]; first compound 4 µM) was 0.385, the relative viability ([14]; first compound 0.04 µM) was 0.828 and the relative viability ([14]; first compound 0.1265 µM) was 0.886. For the same compound, the relative viability ([14]; first compound 0.4 µM) was 0.89, the relative viability ([14]; first compound 4 µM) was 0.806 and the relative viability ([15]; first compound 0.04 µM) was 0.472. It also gave a relative viability ([15]; first compound 0.1265 µM) of 0.402, a relative viability ([15]; first compound 0.4 µM) of 0.451 and a relative viability ([15]; first compound 4 µM) of 0.29. For the same compound, the relative viability ([16]; first compound 0.04 µM) was 0.76, the relative viability ([16]; first compound 0.1265 µM) was 0.927 and the relative viability ([16]; first compound 0.4 µM) was 0.994. For the same compound, the relative viability ([16]; first compound 4 µM) was 0.912, the relative viability ([17]; first compound 0.04 µM) was 0.668 and the relative viability ([17]; first compound 0.1265 µM) was 0.65. For the same compound, the relative viability ([17]; first compound 0.4 µM) was 0.652, the relative viability ([17]; first compound 4 µM) was 0.647 and the relative viability ([18]; first compound 0.04 µM) was 0.386. For the same compound, the relative viability ([18]; first compound 0.1265 µM) was 0.417, the relative viability ([18]; first compound 0.4 µM) was 0.404 and the relative viability ([18]; first compound 4 µM) was 0.41. The relative viability ([19]; first compound 0.04 µM) was 0.559, the relative viability ([19]; first compound 0.1265 µM) was 0.528 and the relative viability ([19]; first compound 0.4 µM) was 0.429. It also gave a relative viability ([19]; first compound 4 µM) of 0.514, a relative viability ([20]; first compound 0.04 µM) of 0.554 and a relative viability ([20]; first compound 0.1265 µM) of 0.529. For the same compound, the relative viability ([20]; first compound 0.4 µM) was 0.505, the relative viability ([20]; first compound 4 µM) was 0.539 and the relative viability ([21]; first compound 0.04 µM) was 0.66. The relative viability ([21]; first compound 0.1265 µM) was 0.556, the relative viability ([21]; first compound 0.4 µM) was 0.502 and the relative viability ([21]; first compound 4 µM) was 0.559. For the same compound, the relative viability ([22]; first compound 0.04 µM) was 0.547, the relative viability ([22]; first compound 0.1265 µM) was 0.557 and the relative viability ([22]; first compound 0.4 µM) was 0.582. It also gave a relative viability ([22]; first compound 4 µM) of 0.668, a relative viability ([23]; first compound 0.04 µM) of 0.616 and a relative viability ([23]; first compound 0.1265 µM) of 0.573. It also gave a relative viability ([23]; first compound 0.4 µM) of 0.465 and a relative viability ([23]; first compound 4 µM) of 0.287.
